From paper PMC11149917, “Translational and Therapeutic Evaluation of RAS-GTP Inhibition by RMC-6236 in RAS-Driven Cancers” (Cancer Discovery, 2024)

Test system: PRISM panel of 845 cancer cell lines
Assay: PRISM assay
Assay type: cell-based, human
Procedure: The PRISM cell set comprised 845 cell lines representing more than 45 lineages (see Supplementary Table S1 for cell line information), which largely overlapped with the Cancer Cell Line Encyclopedia; https://portals.broadinstitute.org/ccle). Cell lines were grown in RPMI without phenol red and supplemented with 10% or 20% FBS for adherent and suspended lines, respectively. Parental cell lines were stably infected with a unique 24-nucleotide DNA barcode via lentiviral transduction and blasticidin selection. After selection, barcoded cell lines were expanded and subjected to quality control (Mycoplasma contamination test, an SNP test for confirming cell line identity, and barcode ID confirmation). Approved cell lines were then pooled (20–25 cell lines per pool) based on doubling time similarity and frozen in assay-ready vials.
RMC-6236 was added to 384-well plates at 8-point concentration with 3-fold dilutions in triplicate. These assay-ready plates were then seeded with the thawed cell line pools. Adherent cell pools were plated at 1,250 cells per well, whereas suspension and mixed adherent/suspension pools were plated at 2,000 cells per well. Treated cells were incubated for 5 days, and then lysed. Lysate plates were collapsed together prior to barcode amplification and detection.
Each cell line's unique barcode is located in the 3′UTR of the blasticidin-resistance gene and therefore is expressed as mRNA. Total mRNA was captured using magnetic particles that recognize polyA sequences. Captured mRNA was reverse-transcribed into cDNA and then the sequence containing the unique PRISM barcode was amplified using PCR. Finally, Luminex beads that recognize the specific barcode sequences in the cell set were hybridized to the PCR products and detected using a Luminex scanner which reports the signal as a median fluorescent intensity (MFI).
• Each detection well contained 10 control barcodes in increasing abundances as spike-in controls. For each plate, we first create a reference profile by calculating the median of the log2(MFI) values across negative control wells for each of these spiked-in barcodes. • For each well, a monotonic smooth p-spline was fitted to map the spike-in control levels to the reference profile. Next, we transform the log2(MFI) for each cell barcode using the fitted spline to allow well-to-well comparisons by correcting for amplification and detection artifacts. • Next, the separability between negative and positive control treatments was assessed. In particular, we calculated the error rate of the optimum simple threshold classifier between the control samples for each cell line and plate combination. The error rate is a measure of the overlap of the two control sets and was defined as error = (FP + FN)/n, where FP is false positives, FN is false negatives, and n is the total number of controls. A threshold was set between the distributions of positive and negative control log2(MFI) values (with everything below the threshold said to be positive and above said to be negative) such that this value is minimized. Additionally, we also calculated the dynamic range of each cell line. […] Additionally, any cell line that had less than 2 passing replicates was also omitted for the sake of reproducibility. Finally, we computed viability by normalizing with respect to the median negative control for each plate.
For every gene with nonsilent mutations in at least four cell lines, we compared the AUC values between cells with and without those mutations using a t test. This analysis was carried out for (i) the full data set; (ii) excluding cell lines with nonsilent KRAS mutations; and (iii) excluding cell lines that have either KRAS or NRAS nonsilent mutations.

Compound: CCn1c(-c2cc(N3CCN(C)CC3)cnc2[C@H](C)OC)c2c3cc(ccc31)-c1csc(n1)C[C@H](NC(=O)[C@H]1C[C@@H]1C)C(=O)N1CCC[C@H](N1)C(=O)OCC(C)(C)C2 [RMC-6236]
- RMC-6236: RevMed PRISM: AUC (LS_AUTONOMIC_GANGLIA): 1
- RMC-6236: RevMed PRISM: AUC (MCAS_OVARY, KRAS p.G12D): 0.5822
- RMC-6236: RevMed PRISM: AUC (MDAMB361_BREAST): 0.8463
- RMC-6236: RevMed PRISM: AUC (MG63_BONE): 0.9083
- RMC-6236: RevMed PRISM: AUC (MIAPACA2_PANCREAS, KRAS p.G12C): 0.3158
- RMC-6236: RevMed PRISM: AUC (MKN1_STOMACH): 0.8375
- RMC-6236: RevMed PRISM: AUC (MMNK1_BILIARY_TRACT): 1
- RMC-6236: RevMed PRISM: AUC (MOLP2_HAEMATOPOIETIC_AND_LYMPHOID_TISSUE): 0.8941
- RMC-6236: RevMed PRISM: AUC (NCIH1373_LUNG, KRAS p.G12C): 0.5175
- RMC-6236: RevMed PRISM: AUC (NCIH1623_LUNG): 0.9336
- RMC-6236: RevMed PRISM: AUC (NCIH1792_LUNG, KRAS p.G12C): 0.4194
- RMC-6236: RevMed PRISM: AUC (NCIH1944_LUNG, KRAS p.G13D): 0.6749
- RMC-6236: RevMed PRISM: AUC (NCIH2110_LUNG): 0.7265
- RMC-6236: RevMed PRISM: AUC (NCIH2170_LUNG): 0.8266
- RMC-6236: RevMed PRISM: AUC (NOZ_LIVER, KRAS p.G12V): 0.4128
- RMC-6236: RevMed PRISM: AUC (NP3_CENTRAL_NERVOUS_SYSTEM): 0.8074
- RMC-6236: RevMed PRISM: AUC (NUGC4_STOMACH): 0.5513
- RMC-6236: RevMed PRISM: AUC (OE21_OESOPHAGUS): 0.7641
- RMC-6236: RevMed PRISM: AUC (OSRC2_KIDNEY): 0.9503
- RMC-6236: RevMed PRISM: AUC (OVKATE_OVARY): 0.9428
- RMC-6236: RevMed PRISM: AUC (PL21_HAEMATOPOIETIC_AND_LYMPHOID_TISSUE, KRAS p.A146V): 0.4905
- RMC-6236: RevMed PRISM: AUC (PSN1_PANCREAS, KRAS p.G12R): 0.3382
- RMC-6236: RevMed PRISM: AUC (RDES_BONE): 0.8941
- RMC-6236: RevMed PRISM: AUC (RERFLCKJ_LUNG): 0.8815
- RMC-6236: RevMed PRISM: AUC (RKN_SOFT_TISSUE, KRAS p.G12V): 0.3219
- RMC-6236: RevMed PRISM: AUC (RL_HAEMATOPOIETIC_AND_LYMPHOID_TISSUE): 0.8075
- RMC-6236: RevMed PRISM: AUC (SKES1_BONE): 0.8643
- RMC-6236: RevMed PRISM: AUC (SKGT2_STOMACH): 0.6916
- RMC-6236: RevMed PRISM: AUC (SKHEP1_LIVER): 0.8776
- RMC-6236: RevMed PRISM: AUC (SNU601_STOMACH, KRAS p.G12D): 0.4515
- RMC-6236: RevMed PRISM: AUC (SNU1076_UPPER_AERODIGESTIVE_TRACT): 0.4839
- RMC-6236: RevMed PRISM: AUC (SNU1079_BILIARY_TRACT): 0.8678
- RMC-6236: RevMed PRISM: AUC (SR786_HAEMATOPOIETIC_AND_LYMPHOID_TISSUE): 0.7042
- RMC-6236: RevMed PRISM: AUC (SUDHL4_HAEMATOPOIETIC_AND_LYMPHOID_TISSUE): 0.8448
- RMC-6236: RevMed PRISM: AUC (SUDHL8_HAEMATOPOIETIC_AND_LYMPHOID_TISSUE): 1
- RMC-6236: RevMed PRISM: AUC (SUIT2_PANCREAS, KRAS p.G12D): 0.6849
- RMC-6236: RevMed PRISM: AUC (SW626_LARGE_INTESTINE, KRAS p.G12V): 0.3255
- RMC-6236: RevMed PRISM: AUC (SW1271_LUNG, NRAS p.Q61R): 0.6986
- RMC-6236: RevMed PRISM: AUC (TC106_BONE): 0.7285
- RMC-6236: RevMed PRISM: AUC (TE8_OESOPHAGUS): 0.7048
- RMC-6236: RevMed PRISM: AUC (TT_THYROID): 1
- RMC-6236: RevMed PRISM: AUC (U2973_HAEMATOPOIETIC_AND_LYMPHOID_TISSUE): 1
- RMC-6236: RevMed PRISM: AUC (UMUC6_URINARY_TRACT): 0.4621
- RMC-6236: RevMed PRISM: AUC (UMUC10_URINARY_TRACT): 0.7756
- RMC-6236: RevMed PRISM: AUC (UMUC11_URINARY_TRACT): 0.952
- RMC-6236: RevMed PRISM: AUC (VAL_HAEMATOPOIETIC_AND_LYMPHOID_TISSUE): 0.8667
- RMC-6236: RevMed PRISM: AUC (YD10B_UPPER_AERODIGESTIVE_TRACT): 0.5303
- RMC-6236: RevMed PRISM: AUC (YD38_UPPER_AERODIGESTIVE_TRACT): 0.4476
- RMC-6236: RevMed PRISM: AUC ([…]02ER_ENDOMETRIUM): 0.8144
- Median AUC (PRISM) (mutant copy number gained KRAS): 0.54
- Median AUC (PRISM) (wild-type KRAS cell lines): 0.78
- Median AUC (PRISM) (wild-type copy number gained KRAS): 0.84
